Results from US5672715A, “Herbicidal substituted 3-aryl-pyrazoles” (Monsanto Company, priority 1995, dated 1997).
Like-named read-outs stand apart in the source and are kept apart here.

Legend:
Assay type in all cases: in vivo
[1] = test system: Barnyardgrass; experiment: post-emergence herbicide test; conditions: Echinochloa crus-galli, post-emergence, read-out: % plant inhibition
Outline: (§1)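 Activity is given as percent inhibition of each species following foliar application. Pots were sprayed individually in a chamber once plants reached two to three weeks.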

[2] = test system: Blackgrass; experiment: post-emergence herbicide test; conditions: Alopecurus myosuroides, post-emergence, read-out: % plant inhibition; for inhibition at 7.95803 g/ha: 0.0071 lb/A; for inhibition at 40.0143 g/ha: 0.0357 lb/A; for inhibition at 200.072 g/ha: 0.1785 lb/A; for inhibition at 1000.92 g/ha: 0.893 lb/A
Outline: as §1

[3] = test system: Soybean; experiment: post-emergence herbicide test; conditions: Glycine max, post-emergence, read-out: % plant inhibition
Outline: as §1

[4] = test system: Velvetleaf; experiment: post-emergence herbicide test; conditions: Abutilon theophrasti, post-emergence, read-out: % plant inhibition
Outline: as §1

[5] = test system: Corn; experiment: post-emergence herbicide test; conditions: Zea mays, post-emergence, read-out: % plant inhibition
Outline: as §1

[6] = test system: Yellow Foxtail; experiment: post-emergence herbicide test; conditions: Setaria, read-out: % plant inhibition
Outline: as §1

[7] = test system: Wheat; experiment: post-emergence herbicide test; conditions: Triticum aestivum, post-emergence, read-out: % plant inhibition
Outline: as §1

[8] = test system: Barnyardgrass; experiment: pre-emergence herbicide test; conditions: Echinochloa crus-galli, pre-emergence, read-out: % plant inhibition
Outline: (§2)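 Greenhouse pan assay in which seeds lie under a treated topsoil cover; carrier was acetone or water. Inhibition (%) was recorded about 14 days post-treatment.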

[9] = test system: Yellow Nutsedge; experiment: pre-emergence herbicide test; conditions: Cyperus, read-out: % plant inhibition
Outline: as §2

[10] = test system: Soybean; experiment: pre-emergence herbicide test; conditions: Glycine max, pre-emergence, read-out: % plant inhibition
Outline: as §2

[11] = test system: Cocklebur; experiment: pre-emergence herbicide test; conditions: Xanthium strumarium, pre-emergence, read-out: % plant inhibition
Outline: as §2

[12] = test system: Rice; experiment: pre-emergence herbicide test; conditions: Oryza sativa, read-out: % plant inhibition
Outline: as §2

[13] = test system: Velvetleaf; experiment: pre-emergence herbicide test; conditions: Abutilon theophrasti, pre-emergence, read-out: % plant inhibition
Outline: as §2

[14] = test system: Corn; experiment: pre-emergence herbicide test
Outline: as §2

[15] = test system: Yellow Foxtail; experiment: pre-emergence herbicide test; conditions: Setaria, read-out: % plant inhibition
Outline: as §2

[16] = test system: Morning Glory; experiment: pre-emergence herbicide test; conditions: Ipomoea, pre-emergence, read-out: % plant inhibition
Outline: as §2

COc1cc(-c2nn(C)c(C(F)(F)F)c2C)c(F)cc1Cl [Compound 37]
inhibition at 7.95803 g/ha ([1]; 0.0071 lb/A): 0% | inhibition at 40.0143 g/ha ([1]; 0.0357 lb/A): 15% | inhibition at 200.072 g/ha ([1]; 0.1785 lb/A): 65% | inhibition at 1000.92 g/ha ([1]; 0.893 lb/A): 45% | inhibition at 7.95803 g/ha ([2]; Table 4a): 0% | inhibition at 7.95803 g/ha ([2]; Table 5a): 10% | inhibition at 40.0143 g/ha ([2]; Table 4a): 0% | inhibition at 40.0143 g/ha ([2]; Table 5a): 25% | inhibition at 200.072 g/ha ([2]; Table 4a): 10% | inhibition at 200.072 g/ha ([2]; Table 5a): 65% | inhibition at 1000.92 g/ha ([2]; Table 4a): 15% | inhibition at 1000.92 g/ha ([2]; Table 5a): 85% | inhibition at 7.95803 g/ha ([3]; 0.0071 lb/A): 10% | inhibition at 40.0143 g/ha ([3]; 0.0357 lb/A): 40% | inhibition at 200.072 g/ha ([3]; 0.1785 lb/A): 40% | inhibition at 1000.92 g/ha ([3]; 0.893 lb/A): 60% | inhibition at 7.95803 g/ha ([4]; 0.0071 lb/A): 25% | inhibition at 40.0143 g/ha ([4]; 0.0357 lb/A): 35% | inhibition at 200.072 g/ha ([4]; 0.1785 lb/A): 50% | inhibition at 1000.92 g/ha ([4]; 0.893 lb/A): 100% | inhibition at 7.95803 g/ha ([5]; 0.0071 lb/A): 5% | inhibition at 40.0143 g/ha ([5]; 0.0357 lb/A): 10% | inhibition at 200.072 g/ha ([5]; 0.1785 lb/A): 50% | inhibition at 1000.92 g/ha ([5]; 0.893 lb/A): 100% | inhibition at 7.95803 g/ha ([6]; 0.0071 lb/A): 0% | inhibition at 40.0143 g/ha ([6]; 0.0357 lb/A): 20% | inhibition at 200.072 g/ha ([6]; 0.1785 lb/A): 65% | inhibition at 1000.92 g/ha ([6]; 0.893 lb/A): 65% | inhibition at 7.95803 g/ha ([7]; 0.0071 lb/A): 5% | inhibition at 40.0143 g/ha ([7]; 0.0357 lb/A): 0% | inhibition at 200.072 g/ha ([7]; 0.1785 lb/A): 10% | inhibition at 1000.92 g/ha ([7]; 0.893 lb/A): 30% | inhibition at 7.95803 g/ha ([8]; 0.0071 lb/A): 80% | inhibition at 40.0143 g/ha ([8]; 0.0357 lb/A): 100% | inhibition at 200.072 g/ha ([8]; 0.1785 lb/A): 100% | inhibition at 280.212 g/ha ([8]; 0.25 lb/A): 100% | inhibition at 1000.92 g/ha ([8]; 0.893 lb/A): 100% | inhibition at 7.95803 g/ha ([9]; 0.0071 lb/A): 0% | inhibition at 40.0143 g/ha ([9]; 0.0357 lb/A): 35% | inhibition at 200.072 g/ha ([9]; 0.1785 lb/A): 50% | inhibition at 1000.92 g/ha ([9]; 0.893 lb/A): 45% | inhibition at 7.95803 g/ha ([10]; 0.0071 lb/A): 20% | inhibition at 40.0143 g/ha ([10]; 0.0357 lb/A): 50% | inhibition at 200.072 g/ha ([10]; 0.1785 lb/A): 50% | inhibition at 280.212 g/ha ([10]; 0.25 lb/A): 35% | inhibition at 1000.92 g/ha ([10]; 0.893 lb/A): 100% | inhibition at 7.95803 g/ha ([11]; 0.0071 lb/A): 100% | inhibition at 40.0143 g/ha ([11]; 0.0357 lb/A): 75% | inhibition at 200.072 g/ha ([11]; 0.1785 lb/A): 80% | inhibition at 280.212 g/ha ([11]; 0.25 lb/A): 60% | inhibition at 1000.92 g/ha ([11]; 0.893 lb/A): 98% | inhibition at 7.95803 g/ha ([12]; 0.0071 lb/A): 25% | inhibition at 40.0143 g/ha ([12]; 0.0357 lb/A): 0% | inhibition at 200.072 g/ha ([12]; 0.1785 lb/A): 85% | inhibition at 1000.92 g/ha ([12]; 0.893 lb/A): 100% | inhibition at 7.95803 g/ha ([13]; 0.0071 lb/A): 98% | inhibition at 40.0143 g/ha ([13]; 0.0357 lb/A): 100% | inhibition at 200.072 g/ha ([13]; 0.1785 lb/A): 100% | inhibition at 280.212 g/ha ([13]; 0.25 lb/A): 100% | inhibition at 1000.92 g/ha ([13]; 0.893 lb/A): 100% | % plant inhibition ([14]; 0.25 lb/A): 98% | inhibition at 7.95803 g/ha ([14]; Zea mays, pre-emergence, 0.0071 lb/A, read-out: % plant inhibition): 25% | inhibition at 40.0143 g/ha ([14]; Zea mays, pre-emergence, 0.0357 lb/A, read-out: % plant inhibition): 50% | inhibition at 200.072 g/ha ([14]; Zea mays, pre-emergence, 0.1785 lb/A, read-out: % plant inhibition): 85% | inhibition at 280.212 g/ha ([14]; Zea mays, pre-emergence, 0.25 lb/A, read-out: % plant inhibition): 95% | inhibition at 1000.92 g/ha ([14]; Zea mays, pre-emergence, 0.893 lb/A, read-out: % plant inhibition): 100% | inhibition at 7.95803 g/ha ([15]; 0.0071 lb/A): 55% | inhibition at 40.0143 g/ha ([15]; 0.0357 lb/A): 95% | inhibition at 200.072 g/ha ([15]; 0.1785 lb/A): 100% | inhibition at 280.212 g/ha ([15]; 0.25 lb/A): 100% | inhibition at 1000.92 g/ha ([15]; 0.893 lb/A): 100% | inhibition at 7.95803 g/ha ([16]; 0.0071 lb/A): 80% | inhibition at 40.0143 g/ha ([16]; 0.0357 lb/A): 98% | inhibition at 200.072 g/ha ([16]; 0.1785 lb/A): 90% | inhibition at 280.212 g/ha ([16]; 0.25 lb/A): 98% | inhibition at 1000.92 g/ha ([16]; 0.893 lb/A): 100%
